Data published in PMC10980815, “Cell surface patching via CXCR4-targeted nanothreads for cancer metastasis inhibition” (Nature Communications, 2024).
Ends that are not written are not given here.

Key:
[1] = system: orthotopic 4T1 breast tumors; assay: Spontaneous lung metastasis model: tumor volume and pulmonary metastatic nodules; type: in vivo, female BALB/c mice; details: for Number of metastatic nodules: Fig. 5e, pulmonary
Protocol: For the in vivo investigation of pulmonary metastasis, 4T1 cells (1 × 10^6 cells) were injected into the third mammary fat pad of female BALB/c mice (6–8 weeks). […] Tumor volumes were recorded every other day. On day 28, lungs were harvested and fixed with Bouin’s solutions. The pulmonary metastatic nodules were counted and analyzed by hematoxylin-eosin staining.

CXCR2 = target: T1, CXCR2 (Mus musculus, UniProt P35343); assay: Dose-dependent chemokine receptor occupation assay; type: binding, 4T1 murine cells; details: 4T1 cells, 0.1 nM to 1 mM, 1 h
T1 construct: endogenous in cells; host or cells: 4T1 murine breast cancer cells
T1 sequence (P35343 1-359): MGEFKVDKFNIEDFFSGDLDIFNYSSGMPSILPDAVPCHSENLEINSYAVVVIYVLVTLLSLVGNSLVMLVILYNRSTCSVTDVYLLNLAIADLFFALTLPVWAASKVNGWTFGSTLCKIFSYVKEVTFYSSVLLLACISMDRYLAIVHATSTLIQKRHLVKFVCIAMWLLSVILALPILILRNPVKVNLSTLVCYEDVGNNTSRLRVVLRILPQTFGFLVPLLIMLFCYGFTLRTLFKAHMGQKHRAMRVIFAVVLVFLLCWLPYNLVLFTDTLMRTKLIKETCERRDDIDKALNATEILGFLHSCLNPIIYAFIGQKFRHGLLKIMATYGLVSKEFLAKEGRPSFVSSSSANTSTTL
Protocol: (§1) To validate the specificity of the BS (CXCR4-binding sequence) to CXCR4, a dose-dependent chemokine receptors occupation assay and a chemokine receptors competitive binding assay were conducted. […] Unoccupied chemokine receptors (CXCR4, CXCR7, CXCR2, CXCR5, and CCR4) on cell surface were stained with PE anti-human CD184/CXCR4 Antibody (1:300 dilution), anti-CXCR7-PE (1:300 dilution), anti-CXCR2-PE (1:300 dilution), anti-CXCR5-PE (1:300 dilution), and PE anti-human CD194/CCR4 Antibody (1:300 dilution) at 4 °C for 1 h, prior to flow cytometry analysis. In the chemokine receptors competitive binding assay, 4T1 cells (5 × 10^5 cells) were pre-blocked with PE anti-human CD184/CXCR4 Antibody (1:300 dilution), anti-CXCR7-PE (1:300 dilution), anti-CXCR2-PE (1:300 dilution), anti-CXCR5-PE (1:300 dilution), and PE anti-human CD194/CCR4 Antibody (1:300 dilution) at 4 °C for 1 h. Subsequently, these cells were treated with P-Cy5-BS-CM1-Cy5 (5 nM Cy5 equivalence) for 1 h. Following the treatments, cells were washed three times with PBS and subjected to flow cytometry analysis.

CXCR4 = target: T2, CXCR4 (Mus musculus, UniProt P70658); assay: Dose-dependent chemokine receptor occupation assay; type: binding, 4T1 murine cells; details: 4T1 cells, 0.1 nM to 1 mM, 25 °C, 1 h; unoccupied receptor stained with PE antibody
T2 construct: endogenous in cells; host or cells: 4T1 murine breast cancer cells
T2 sequence (P70658 whole entry): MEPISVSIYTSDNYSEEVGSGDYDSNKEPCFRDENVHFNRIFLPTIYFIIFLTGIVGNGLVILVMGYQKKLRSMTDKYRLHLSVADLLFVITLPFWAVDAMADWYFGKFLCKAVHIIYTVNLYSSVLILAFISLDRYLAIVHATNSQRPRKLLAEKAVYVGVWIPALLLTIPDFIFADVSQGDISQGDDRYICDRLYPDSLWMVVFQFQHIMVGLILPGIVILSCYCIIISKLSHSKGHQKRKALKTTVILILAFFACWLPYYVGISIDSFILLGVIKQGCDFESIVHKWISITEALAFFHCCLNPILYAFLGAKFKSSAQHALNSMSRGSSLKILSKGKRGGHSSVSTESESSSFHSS
Protocol: as §1

CXCR7 = target: T3, CXCR7 (Mus musculus, UniProt P56485); assay: Dose-dependent chemokine receptor occupation assay; type: binding, 4T1 murine cells; details: 4T1 cells, 0.1 nM to 1 mM, 1 h
T3 construct: endogenous in cells; host or cells: 4T1 murine breast cancer cells
T3 sequence (P56485 whole entry): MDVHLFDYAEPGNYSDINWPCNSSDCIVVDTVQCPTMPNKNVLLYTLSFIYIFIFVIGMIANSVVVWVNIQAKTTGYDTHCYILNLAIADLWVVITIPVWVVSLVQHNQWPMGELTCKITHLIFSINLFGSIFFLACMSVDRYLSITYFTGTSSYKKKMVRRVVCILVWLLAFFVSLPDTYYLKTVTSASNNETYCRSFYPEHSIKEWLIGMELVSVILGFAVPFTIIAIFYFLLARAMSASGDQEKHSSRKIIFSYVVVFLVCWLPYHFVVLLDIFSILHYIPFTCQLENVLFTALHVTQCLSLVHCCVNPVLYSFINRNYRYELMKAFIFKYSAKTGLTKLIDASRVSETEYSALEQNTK
Protocol: as §1

CXCR5 = target: T4, CXCR5 (Mus musculus, UniProt Q04683); assay: Dose-dependent chemokine receptor occupation assay; type: binding, 4T1 murine cells; details: 4T1 cells, 0.1 nM to 1 mM, 1 h
T4 construct: endogenous in cells; host or cells: 4T1 murine breast cancer cells
T4 sequence (Q04683 1-374): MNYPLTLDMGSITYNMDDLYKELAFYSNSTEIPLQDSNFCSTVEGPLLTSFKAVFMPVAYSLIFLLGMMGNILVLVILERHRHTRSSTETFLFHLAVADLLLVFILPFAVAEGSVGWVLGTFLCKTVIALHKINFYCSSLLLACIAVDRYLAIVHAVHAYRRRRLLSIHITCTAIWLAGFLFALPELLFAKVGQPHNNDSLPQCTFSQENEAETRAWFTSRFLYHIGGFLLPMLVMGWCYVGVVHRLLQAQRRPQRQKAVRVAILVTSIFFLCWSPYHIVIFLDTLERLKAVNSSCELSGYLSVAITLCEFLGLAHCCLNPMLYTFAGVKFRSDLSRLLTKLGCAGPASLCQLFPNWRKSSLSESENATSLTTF
Protocol: as §1

CCR4 = target: T5, CCR4 (Mus musculus, UniProt P51680); assay: Dose-dependent chemokine receptor occupation assay; type: binding, 4T1 murine cells; details: 4T1 cells, 0.1 nM to 1 mM, 1 h
T5 construct: endogenous in cells; host or cells: 4T1 murine breast cancer cells
T5 sequence (P51680 1-360): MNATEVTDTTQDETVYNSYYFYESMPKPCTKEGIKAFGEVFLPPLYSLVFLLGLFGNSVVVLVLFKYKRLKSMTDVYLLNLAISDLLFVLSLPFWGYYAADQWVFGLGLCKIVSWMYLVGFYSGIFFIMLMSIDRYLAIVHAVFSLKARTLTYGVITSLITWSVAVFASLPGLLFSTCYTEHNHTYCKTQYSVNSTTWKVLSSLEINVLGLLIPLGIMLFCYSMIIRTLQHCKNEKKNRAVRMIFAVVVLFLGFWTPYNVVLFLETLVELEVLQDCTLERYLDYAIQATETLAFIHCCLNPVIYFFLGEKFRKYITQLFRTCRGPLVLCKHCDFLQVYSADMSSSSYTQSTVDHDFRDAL
Protocol: as §1

Row | Substance | Number of metastatic nodules ([1]; mouse 1) | Number of metastatic nodules ([1]; mouse 2) | Number of metastatic nodules ([1]; mouse 3) | Number of metastatic nodules ([1]; mouse 4) | Number of metastatic nodules ([1]; mouse 5) | lung metastatic nodule burden at endpoint ([1]; three weekly i.v. cycles, day 28) | CXCR2 occupation (CXCR2) | CXCR4 occupation (CXCR4) | CXCR7 occupation (CXCR7) | CXCR5 occupation (CXCR5) | CCR4 occupation (CCR4)
1 | LGASWHRPDKCCLGYQKRPLPA [Free BS] | 31 | 28 | 25 | 36 | 27 | high metastatic nodule burdens | did not occupy | comparable CXCR4 occupation to AMD3100 | did not occupy | did not occupy | did not occupy
2 | P-BS: HPMA copolymer-BS conjugate, ~6 BS grafts per polymer (LGASWHRPDKCCLGYQKRPLPA; not fully specified (residues 11, 12); also: about 6 peptides grafted on HPMA copolymer via cysteine-maleimide thioether links) | 15 | 17 | 22 | 19 | 28 |  |  |  |  |  | 
